Results: patent publication US7211587B2, “Quinoline derivatives and quinazoline derivatives having azolyl group” (Kirin Beer Kabushiki Kaisha, priority 2001, dated 2007)

Tested on: Human pulmonary carcinoma cells (LC-6)
Assay: Antitumor activity against human pulmonary carcinoma cells (LC-6) transplanted into nude mice
Type: in vivo
Details: Mus musculus, 216 h; LC-6 in nude mice, oral 20 mg/kg once a day for 9 days; read-out: TGIR (tumor growth inhibition rate)
Experimental: Human pulmonary carcinoma cells (LC-6) (obtained from Central Laboratories for Experimental Animals) were transplanted into nude mice. When the tumor volume became about 100 mm^3, the mice were grouped so that each group consisted of four mice and the average tumor volume was even among the groups. A test compound was orally administered at a dose of 20 mg/kg to the test groups every day once a day for 9 days, while only a vehicle was administered to a control group in the manner as in the test groups. The tumor growth inhibition rate (TGIR) was calculated as follows: The tumor growth inhibition rate (TGIR)=(1−TX/CX)×100 wherein CX represents the volume of tumor at day X for the control group when the tumor volume at the first day of the administration was presumed to be 1; and TX represents the tumor volume for test compound administration groups.

SMILES | inhibition in vivo at 20 mg/kg
COc1cc2nccc(Oc3ccc(NC(=O)Nc4cc(C)no4)c(F)c3)c2cc1OC [Ex. 6, N-{4-[(6,7-Dimethoxy-4-quinolyl)oxy]-2-fluorophenyl}-N′-(3-methyl-5-isoxazolyl)urea] | 29.3%

Biological target: T1, human KDR (Homo sapiens, UniProt P35968)
T1 construct: expressed in transfected cells; host or cells: NIH 3T3 cells (mouse fibroblasts) stably expressing human KDR
Assay: Inhibitory activity against KDR phosphorylation by ELISA (VEGF-stimulated NIH 3T3 cells expressing human KDR)
Type: cell-based
Details: VEGF 100 ng/ml, compound 1 hr, read-out: IC50 (inhibition of KDR phosphorylation)
Experimental: The harvested cells were inoculated into wells of a collagen-type one-coat 96-well flat-bottom plate, each containing the same medium, in an amount of 1.5×10^4 per well, followed by cultivation at 37° C. overnight. The medium was then replaced by a DMEM medium containing 0.1% fetal calf serum. A solution of a test compound in dimethyl sulfoxide was added to each well, and the cultivation was continued at 37° C. for additional one hr. A human recombinant vascular endothelial growth factor (hereinafter abbreviated to “VEGF”) was added to a final concentration of 100 ng/ml, and the stimulation of cells was carried out at 37° C. for 2 min. The medium was removed, the cells were washed with phosphate buffered saline (pH 7.4), and 50 μl of a solubilization buffer (20 mM HEPES (pH 7.4), 150 mM NaCl, 0.2% Triton X-100, 10% glycerol, 5 mM sodium orthovanadylate, 5 mM disodium ethylenediaminetetraacetate, and 2 mM Na4P2O7) was then added thereto. The mixture was shaken at 4° C. for 2 hr to prepare a cell extract.
Separately, phosphate buffered saline (50 μl, pH 7.4) containing 5 μg/ml of an anti-phospho-tyrosine antibody (PY20; purchased from Transduction Laboratories) was added to a microplate for ELISA (Maxisorp; purchased from NUNC), followed by standing at 4° C. overnight to form a solid phase on the wells. After washing of the plate, 300 μl of a blocking solution was added, followed by standing at room temperature for 2 hr to perform blocking. After washing, the whole quantity of the cell extract was transferred to the wells, and the plate was then allowed to stand at 4° C. overnight. After washing, an anti-KDR antibody (purchased from Santa Cruz) was allowed to react at room temperature for one hr, and, after washing, a peroxidase-labeled anti-rabbit Ig antibody (purchased from Amersham) was allowed to react at room temperature for one hr. After washing, a chromophoric substrate for peroxidase (purchased from Sumitomo Bakelite Co., Ltd.) was added thereto to initiate a reaction. After a suitable level of color development, a reaction termination solution was added to stop the reaction, and the absorbance at 450 nm was measured with a microplate reader. The KDR phosphorylation activity for each well was determined by presuming the absorbance with the addition of VEGF and without the addition of the medicament to be 100% KDR phosphorylation activity and the absorbance without the addition of the medicament and VEGF to be 0% KDR phosphorylation activity.

T1 sequence (P35968 20-1356): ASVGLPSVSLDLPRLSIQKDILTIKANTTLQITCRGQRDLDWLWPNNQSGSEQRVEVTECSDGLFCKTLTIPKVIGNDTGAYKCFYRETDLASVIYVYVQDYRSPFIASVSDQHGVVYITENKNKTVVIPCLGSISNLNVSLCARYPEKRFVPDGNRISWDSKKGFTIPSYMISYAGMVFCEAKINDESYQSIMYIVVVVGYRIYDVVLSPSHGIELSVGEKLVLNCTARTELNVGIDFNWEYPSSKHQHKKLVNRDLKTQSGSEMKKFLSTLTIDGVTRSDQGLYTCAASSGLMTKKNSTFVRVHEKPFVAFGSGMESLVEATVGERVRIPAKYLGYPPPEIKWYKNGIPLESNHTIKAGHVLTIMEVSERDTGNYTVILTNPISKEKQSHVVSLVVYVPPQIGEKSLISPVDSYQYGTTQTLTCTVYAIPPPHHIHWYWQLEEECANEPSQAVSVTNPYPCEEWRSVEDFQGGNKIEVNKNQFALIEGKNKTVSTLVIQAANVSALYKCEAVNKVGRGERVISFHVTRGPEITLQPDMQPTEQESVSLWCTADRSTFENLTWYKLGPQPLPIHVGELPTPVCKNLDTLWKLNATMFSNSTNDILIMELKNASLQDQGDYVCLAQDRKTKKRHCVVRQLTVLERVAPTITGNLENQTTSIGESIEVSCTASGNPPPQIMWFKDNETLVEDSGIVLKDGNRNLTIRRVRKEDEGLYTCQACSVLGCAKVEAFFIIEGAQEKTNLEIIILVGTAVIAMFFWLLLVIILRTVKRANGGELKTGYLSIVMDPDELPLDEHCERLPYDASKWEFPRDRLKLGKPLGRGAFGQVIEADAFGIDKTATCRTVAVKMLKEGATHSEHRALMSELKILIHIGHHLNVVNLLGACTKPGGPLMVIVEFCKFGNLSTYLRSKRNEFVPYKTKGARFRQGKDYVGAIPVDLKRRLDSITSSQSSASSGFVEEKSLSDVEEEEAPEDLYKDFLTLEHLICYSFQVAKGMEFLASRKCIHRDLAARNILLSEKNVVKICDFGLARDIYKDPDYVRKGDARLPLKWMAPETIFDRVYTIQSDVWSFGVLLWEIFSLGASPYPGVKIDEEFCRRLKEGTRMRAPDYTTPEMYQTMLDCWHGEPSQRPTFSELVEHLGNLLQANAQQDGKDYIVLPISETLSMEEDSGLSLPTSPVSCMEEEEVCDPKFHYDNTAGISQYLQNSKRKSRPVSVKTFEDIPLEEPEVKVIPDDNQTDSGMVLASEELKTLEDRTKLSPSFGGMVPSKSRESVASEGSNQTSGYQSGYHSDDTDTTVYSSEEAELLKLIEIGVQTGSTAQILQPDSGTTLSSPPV

SMILES | IC50
COc1cc2nccc(Oc3ccc(NC(=O)Nc4cc(C)no4)c(F)c3)c2cc1OC [Ex. 6, N-{4-[(6,7-Dimethoxy-4-quinolyl)oxy]-2-fluorophenyl}-N′-(3-methyl-5-isoxazolyl)urea] | < 1 nM
COc1cc2nccc(Oc3ccc(NC(=O)Nc4ccon4)cc3Cl)c2cc1OC [Ex. 1, N-{3-Chloro-4-[(6,7-dimethoxy-4-quinolyl)oxy]phenyl}-N′-(3-isoxazolyl)urea] | 2.3 nM
COc1cc2nccc(Oc3ccc(NC(=O)Nc4ncc(Br)s4)c(F)c3)c2cc1OC [Ex. 35, N-(5-Bromo-1,3-thiazol-2-yl)-N′-{4-[(6,7-dimethoxy-4-quinolyl)oxy]-2-fluorophenyl}urea] | 1.9 nM
COc1cc2nccc(Oc3ccc(NC(=O)Nc4ncc(Cl)s4)c(F)c3)c2cc1OC [Ex. 37, N-(5-Chloro-1,3-thiazol-2-yl)-N′-{4-[(6,7-dimethoxy-4-quinolyl)oxy]-2-fluorophenyl}urea] | 1.9 nM
COc1cc2ncnc(Oc3ccc(NC(=O)Nc4cc(C)no4)cc3Cl)c2cc1OC [Ex. 15, N-{3-Chloro-4-[(6,7-dimethoxy-4-quinazolinyl)oxy]phenyl}-N′-(3-methyl-5-isoxazolyl)urea] | 13.4 nM
COc1cc2ncnc(Oc3ccc(NC(=O)Nc4cc(C)ns4)c(Cl)c3)c2cc1OC [Ex. 17, N-{2-Chloro-4-[(6,7-dimethoxy-4-quinazolinyl)oxy]phenyl}-N′-(3-methyl-5-isothiazolyl)-urea] | 4.9 nM
COc1cc2nccc(Oc3ccc(NC(=O)Nc4ncc(Br)s4)c(Cl)c3)c2cc1OC [Ex. 32, N-(5-Bromo-1,3-thiazol-2-yl)-N′-{2-chloro-4-[(6,7-dimethoxy-4-quinolyl)oxy]phenyl}urea] | 3.7 nM
COc1cc2ncnc(Oc3ccc(NC(=O)Nc4cc(C)ns4)cc3Cl)c2cc1OC [Ex. 18, N-{3-Chloro-4-[(6,7-dimethoxy-4-quinazolinyl)oxy]phenyl}-N′-(3-methyl-5-isothiazolyl)-urea] | 69.7 nM
COc1cc2nccc(Oc3ccc(NC(=O)Nc4nc(C)c(C)s4)c(C(F)(F)F)c3)c2cc1OC [Ex. 26, N-[4-[(6,7-Dimethoxy-4-quinolyl)oxy]-2-(trifluoromethyl)phenyl]-N′-(4,5-dimethyl-1,3-thiazol-2-yl)urea] | 5 nM
CCOC(=O)Cc1csc(NC(=O)Nc2ccc(Oc3ccnc4cc(OC)c(OC)cc34)cc2Cl)n1 [Ex. 31, Ethyl 2-{2-[({2-chloro-4-[(6,7-dimethoxy-4-quinolyl)oxy]anilino}carbonyl)amino]-1,3-thiazol-4-yl}acetate] | 33.9 nM
COc1cc2nccc(Oc3ccc(NC(=O)Nc4nc(C)c(C(C)=O)s4)c(F)c3)c2cc1OC [Ex. 36, N-(5-Acetyl-4-methyl-1,3-thiazol-2-yl)-N′-{4-[(6,7-dimethoxy-4-quinolyl)oxy]-2-fluorophenyl}urea] | 1.2 nM
COc1cc2nccc(Oc3ccc(NC(=O)Nc4ncc(Cl)s4)c(Cl)c3)c2cc1OC [Ex. 34, N-{2-Chloro-4-[(6,7-dimethoxy-4-quinolyl)oxy]phenyl}-N′-(5-chloro-1,3-thiazol-2-yl)urea] | 2.8 nM
COc1cc2ncnc(Oc3ccc(NC(=O)Nc4cc(C)on4)cc3)c2cc1OC [Ex. 10, N-{4-[(6,7-Dimethoxy-4-quinazolinyl)oxy]-phenyl}-N′-(5-methyl-3-isoxazolyl)urea] | 3.6 nM
COc1cc2nccc(Oc3ccc(NC(=O)Nc4cc(C)no4)cc3Cl)c2cc1OC [Ex. 2, N-{3-Chloro-4-[(6,7-dimethoxy-4-quinolyl)oxy]phenyl}-N′-(3-methyl-5-isoxazolyl)urea] | 2 nM

Second part, the compound after the results:

IC50 | SMILES
2.4 nM | COc1cc2nccc(Oc3ccc(NC(=O)Nc4nnc(C5CC5)s4)c(Cl)c3)c2cc1OC [Ex. 67, N-{2-Chloro-4-[(6,7-dimethoxy-4-quinolyl)oxy]phenyl}-N′-(5-cyclopropyl-1,3,4-thiadiazol-2-yl)urea]
4.7 nM | COc1cc2ncnc(Oc3ccc(NC(=O)Nc4nccs4)cc3)c2cc1OC [Ex. 42, N-{4-[(6,7-Dimethoxy-4-quinazolinyl)oxy]-phenyl}-N′-(1,3-thiazol-2-yl)urea]
< 1 nM | CCc1nnc(NC(=O)Nc2ccc(Oc3ccnc4cc(OC)c(OC)cc34)cc2C)s1 [Ex. 60, N-{4-[(6,7-Dimethoxy-4-quinolyl)oxy]-2-methylphenyl}-N′-(5-ethyl-1,3,4-thiadiazol-2-yl)urea]
1.5 nM | CCc1nnc(NC(=O)Nc2ccc(Oc3ccnc4cc(OC)c(OC)cc34)c(C)c2C)s1 [Ex. 62, N-{4-[(6,7-Dimethoxy-4-quinolyl)oxy]-2,3-dimethylphenyl}-N′-(5-ethyl-1,3,4-thiadiazol-2-yl)urea]
4.5 nM | COc1cc2nccc(Oc3ccc(NC(=O)Nc4nnc(C(C)(C)C)s4)c(C)c3C)c2cc1OC [Ex. 75, N-[5-(Tert-butyl)-1,3,4-thiadiazol-2-yl]-N′-{4-[(6,7-dimethoxy-4-quinolyl)oxy]-2,3-dimethylphenyl}-urea]
3.7 nM | CCc1nnc(NC(=O)Nc2ccc(Oc3ccnc4cc(OC)c(OC)cc34)c(Cl)c2)s1 [Ex. 66, N-{3-Chloro-4-[(6,7-dimethoxy-4-quinolyl)oxy]phenyl}-N′-(5-ethyl-1,3,4-thiadiazol-2-yl)urea]
1.1 nM | COc1cc2ncnc(Oc3ccc(NC(=O)Nc4nc(C)cs4)cc3)c2cc1OC [Ex. 44, N-{4-[(6,7-Dimethoxy-4-quinazolinyl)oxy]-phenyl}-N′-(4-methyl-1,3-thiazol-2-yl)urea]
2.9 nM | COc1cc2nccc(Oc3ccc(NC(=O)Nc4nnc(C(F)(F)F)s4)c(Cl)c3)c2cc1OC [Ex. 72, N-{2-Chloro-4-[(6,7-dimethoxy-4-quinolyl)oxy]phenyl}-N′-[5-(trifluoromethyl)-1,3,4-thiadiazol-2-yl]urea]
3.1 nM | CCSc1nnc(NC(=O)Nc2ccc(Oc3ccnc4cc(OC)c(OC)cc34)c(C)c2C)s1 [Ex. 71, N-{4-[(6,7-Dimethoxy-4-quinolyl)oxy]-2,3-dimethylphenyl}-N′-[5-(ethylsulfanyl)-1,3,4-thiadiazol-2-yl]urea]
2.2 nM | CCSc1nnc(NC(=O)Nc2ccc(Oc3ccnc4cc(OC)c(OC)cc34)cc2F)s1 [Ex. 70, N-{4-[(6,7-Dimethoxy-4-quinolyl)oxy]-2-fluorophenyl}-N′-[5-(ethylsulfanyl)-1,3,4-thiadiazol-2-yl]urea]
< 1 nM | COc1cc2ncnc(Oc3ccc(NC(=O)Nc4ncc(C)s4)cc3)c2cc1OC [Ex. 43, N-{4-[(6,7-Dimethoxy-4-quinazolinyl)oxy]-phenyl}-N′-(5-methyl-1,3-thiazol-2-yl)urea]
21 nM | COc1cc2nccc(Oc3ccc(NC(=O)Nc4nnc(C(F)(F)F)s4)cc3Cl)c2cc1OC [Ex. 73, N-{3-Chloro-4-[(6,7-dimethoxy-4-quinolyl)oxy]phenyl}-N′-[5-(trifluoromethyl)-1,3,4-thiadiazol-2-yl]urea]
3 nM | COc1cc2nccc(Oc3ccc(NC(=O)Nc4nnc(C(C)(C)C)s4)c(F)c3)c2cc1OC [Ex. 74, N-[5-(Tert-butyl)-1,3,4-thiadiazol-2-yl]-N′-{4-[(6,7-dimethoxy-4-quinolyl)oxy]-2-fluorophenyl}urea]
1.3 nM | CCc1nnc(NC(=O)Nc2ccc(Oc3ccnc4cc(OC)c(OC)cc34)cc2)s1 [Ex. 59, N-{4-[(6,7-Dimethoxy-4-quinolyl)oxy]phenyl}-N′-(5-ethyl-1,3,4-thiadiazol-2-yl)urea]
7.4 nM | COc1cc2ncnc(Oc3ccc(NC(=O)Nc4nccs4)cc3Cl)c2cc1OC [Ex. 46, N-{3-Chloro-4-[(6,7-dimethoxy-4-quinazolinyl)oxy]phenyl}-N′-(1,3-thiazol-2-yl)urea]
< 1 nM | CCc1nnc(NC(=O)Nc2ccc(Oc3ccnc4cc(OC)c(OC)cc34)cc2F)s1 [Ex. 63, N-{4-[(6,7-Dimethoxy-4-quinolyl)oxy]-2-fluorophenyl}-N′-(5-ethyl-1,3,4-thiadiazol-2-yl)urea]
